Several values for one entry are separate records, joined by “and”; a condition that tells them apart may be missing. Equal values may be shown once. Inconclusive results and toxic doses are left out. The calls were made as follows: active = survival T/C of 150% or more; inactive = T/C below 125% in these data.
Test system: P388 leukemia ip, CD2F1 mice, survival T/C
Assay: NCI In Vivo Anticancer Drug Screen. Data for tumor model P388 Leukemia (intraperitoneal) in CD2F1 (CDF1) mice
Settings: endpoint: median survival time, higher = longer survival
Procedure, shortened: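 Mice carrying the transplanted tumor received test compound or vehicle. Survival was recorded in each group, and the value is the treated-group measurement divided by that of the vehicle-treated control group.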

[1] = dose: 25.0 mg/kg/injection, schedule: Q01DX009 (ip), vehicle: saline with Tween-80
[2] = dose: 50.0 mg/kg/injection, schedule: Q01DX005 (ip), vehicle: saline with Tween-80
[3] = dose: 50.0 mg/kg/injection, schedule: Q01DX009 (ip), vehicle: saline with Tween-80
[4] = dose: 100.0 mg/kg/injection, schedule: Q01DX005 (ip), vehicle: saline with Tween-80
[5] = dose: 100.0 mg/kg/injection, schedule: Q01DX009 (ip), vehicle: saline with Tween-80
[6] = dose: 200.0 mg/kg/injection, schedule: Q01DX005 (ip), vehicle: saline with Tween-80
[7] = dose: 200.0 mg/kg/injection, schedule: Q01DX009 (ip), vehicle: saline with Tween-80
[8] = dose: 60.0 mg/kg/injection, schedule: Q01DX005 (ip), vehicle: saline with Tween-80
[9] = dose: 120.0 mg/kg/injection, schedule: Q01DX005 (ip), vehicle: saline with Tween-80
[10] = dose: 50.0 mg/kg/injection, schedule: Q01DX009 (ip), vehicle: saline
[11] = dose: 100.0 mg/kg/injection, schedule: Q01DX009 (ip), vehicle: saline
[12] = dose: 60.0 mg/kg/injection, schedule: Q01DX005 (ip), vehicle: Klucel (hydroxypropylcellulose) (HPC)
[13] = dose: 120.0 mg/kg/injection, schedule: Q01DX005 (ip), vehicle: Klucel (hydroxypropylcellulose) (HPC)
[14] = dose: 240.0 mg/kg/injection, schedule: Q01DX005 (ip), vehicle: saline with Tween-80
[15] = dose: 50.0 mg/kg/injection, schedule: Q01DX009 (ip), vehicle: Klucel (hydroxypropylcellulose) (HPC)
[16] = dose: 12.5 mg/kg/injection, schedule: Q01DX009 (ip), vehicle: saline with Tween-80
[17] = dose: 6.25 mg/kg/injection, schedule: Q01DX009 (ip), vehicle: Klucel (hydroxypropylcellulose) (HPC)
[18] = dose: 12.5 mg/kg/injection, schedule: Q01DX009 (ip), vehicle: Klucel (hydroxypropylcellulose) (HPC)
[19] = dose: 25.0 mg/kg/injection, schedule: Q01DX009 (ip), vehicle: Klucel (hydroxypropylcellulose) (HPC)
[20] = dose: 50.0 mg/kg/injection, schedule: Q01DX005 (ip), vehicle: Klucel (hydroxypropylcellulose) (HPC)
[21] = dose: 100.0 mg/kg/injection, schedule: Q01DX005 (ip), vehicle: Klucel (hydroxypropylcellulose) (HPC)
[22] = dose: 200.0 mg/kg/injection, schedule: Q01DX005 (ip), vehicle: Klucel (hydroxypropylcellulose) (HPC)
[23] = dose: 100.0 mg/kg/injection, schedule: Q04DX003 (ip), vehicle: Klucel (hydroxypropylcellulose) (HPC)
[24] = dose: 200.0 mg/kg/injection, schedule: Q04DX003 (ip), vehicle: Klucel (hydroxypropylcellulose) (HPC)
[25] = dose: 400.0 mg/kg/injection, schedule: Q04DX003 (ip), vehicle: Klucel (hydroxypropylcellulose) (HPC)

Measured: T/C

O=c1[nH]c(=S)nc2nc[nH]n12
inactive: [1] 100 % of control | [2] 98 % of control | [3] 97 % of control | [4] 100 % of control | [5] 100 % of control | [6] 103 % of control | [7] 106 % of control

CN(C)c1c(Cl)c(=O)oc2c1ccc1nc(-c3ccccc3)ncc12
inactive: [8] 97 % of control | [9] 88 % of control

CCOC(=O)/C(=N\N=P(N(C)C)(N(C)C)N(C)C)[As](C)C
inactive: [10] 103 % of control | [11] 99 % of control

CCN(CC)CCN1N=C(c2ccccc2O)OCC1=O
inactive: [3] 108 % of control | [5] 103 % of control | [7] 98 % of control

O=S(=O)(N/N=C/c1cccc(Cl)c1)c1ccccc1
inactive: [12] 109 % of control | [13] 104 % of control | dose: 240.0 mg/kg/injection, schedule: Q01DX005 (ip), vehicle: Klucel (hydroxypropylcellulose) (HPC) 105 % of control

COc1cc(-c2cc(O)c(-c3ccc4ccccc4n3)c(=O)[nH]2)cc(OC)c1OC
inactive: dose: 0.93 mg/kg/injection, schedule: Q01DX005 (ip), vehicle: saline with Tween-80 102 % of control | dose: 1.88 mg/kg/injection, schedule: Q01DX005 (ip), vehicle: saline with Tween-80 98 % of control | dose: 3.75 mg/kg/injection, schedule: Q01DX005 (ip), vehicle: saline with Tween-80 96 % of control | [9] 87 % of control | [14] 90 % of control

Cc1ccc(S(=O)(=O)N/N=C2/C=CC3(CCCC3)CC2)cc1
inactive: dose: 50.0 mg/kg/injection, schedule: Q01DX001 (ip), vehicle: Klucel (hydroxypropylcellulose) (HPC) 88 % of control | dose: 100.0 mg/kg/injection, schedule: Q01DX001 (ip), vehicle: Klucel (hydroxypropylcellulose) (HPC) 91 % of control | dose: 200.0 mg/kg/injection, schedule: Q01DX001 (ip), vehicle: Klucel (hydroxypropylcellulose) (HPC) 88 % of control and 90 % of control | dose: 400.0 mg/kg/injection, schedule: Q01DX001 (ip), vehicle: Klucel (hydroxypropylcellulose) (HPC) 89 % of control

N/C(=C\c1nc2ccccc2nc1-c1ccccc1)c1ccccc1Cl
inactive: [12] 100 % of control | [13] 91 % of control

NNc1ncnc2ccc(Cl)cc12
inactive: [15] 111 % of control | dose: 100.0 mg/kg/injection, schedule: Q01DX009 (ip), vehicle: Klucel (hydroxypropylcellulose) (HPC) 111 % of control | dose: 200.0 mg/kg/injection, schedule: Q01DX009 (ip), vehicle: Klucel (hydroxypropylcellulose) (HPC) 113 % of control

OC(c1cc(-c2ccccc2)nc2c(Cl)cc(Cl)cc12)C1CCCCN1 (centres undefined)
inactive: [16] 107 % of control | [1] 98 % of control | [3] 88 % of control and 95 % of control

CCCCCCCCCCCC[N+](C)(C)C (tested in a mixture with another compound)
inactive: [17] 113 % of control | [18] 114 % of control | [19] 114 % of control

COc1ccc(N(Cc2ccc(C)o2)C(=S)Nc2ccccc2)cc1
inactive: [8] 98 % of control | [9] 102 % of control | [14] 105 % of control

CC(SCCCCCCSC(C)C(=O)O)C(=O)O (centres undefined)
inactive: [20] 110 % of control | [21] 97 % of control | [22] 95 % of control

NC1CC2CCCCC2CC1(O)c1ccccc1 (centres undefined)
inactive: [18] 98 % of control | [19] 107 % of control | [15] 107 % of control

Cc1cccc(Cl)c1NC1=NCCN1C(=O)CC(=O)c1ccccc1
inactive: dose: 3.13 mg/kg/injection, schedule: Q01DX009 (ip), vehicle: Klucel (hydroxypropylcellulose) (HPC) 107 % of control | [17] 105 % of control | [18] 99 % of control and 100 % of control

O=c1ncc2ccc([N+](=O)[O-])cc2[nH]1
inactive: dose: 12.5 mg/kg/injection, schedule: Q01DX005 (ip), vehicle: Klucel (hydroxypropylcellulose) (HPC) 108 % of control and 95 % of control and 98 % of control | dose: 25.0 mg/kg/injection, schedule: Q01DX005 (ip), vehicle: Klucel (hydroxypropylcellulose) (HPC) 102 % of control and 94 % of control and 98 % of control | [21] 112 % of control

O=C(/C=C/c1ccco1)c1ccc(O)c(C(=O)O)c1
inactive: [1] 99 % of control | [3] 105 % of control | [5] 102 % of control

N#CC(CC[N+](=O)[O-])(c1ccccc1)C(c1ccccc1)[N+](=O)[O-] (centres undefined)
inactive: dose: 12.5 mg/kg/injection, schedule: Q01DX001 (ip), vehicle: saline with Tween-80 87 % of control | dose: 25.0 mg/kg/injection, schedule: Q01DX001 (ip), vehicle: saline with Tween-80 96 % of control

Nc1nc2[nH]ccc2c(=O)[nH]1
inactive: [16] 95 % of control | [1] 94 % of control | [3] 104 % of control | [5] 113 % of control

COC(=O)C1=CO[C@@H](OC2OC(CO)C(O)C(O)C2O)[C@H]2[C@@H]1C=C[C@@]21C=C([C@H](C)OC(=O)/C=C/c2ccc(OC3OC(CO)C(O)C(O)C3O)cc2)C(=O)O1 (some centres undefined)
inactive: dose: 56.0 mg/kg/injection, schedule: Q01DX005 (ip), vehicle: water 105 % of control | dose: 112.0 mg/kg/injection, schedule: Q01DX005 (ip), vehicle: water 105 % of control | dose: 225.0 mg/kg/injection, schedule: Q01DX005 (ip), vehicle: water 104 % of control

C/C=C/C=C1\C=Cc2c(C(=O)OC)coc(=O)c21
inactive: dose: 19.5 mg/kg/injection, schedule: Q01DX005 (ip), vehicle: Klucel (hydroxypropylcellulose) (HPC) 107 % of control | dose: 39.0 mg/kg/injection, schedule: Q01DX005 (ip), vehicle: Klucel (hydroxypropylcellulose) (HPC) 110 % of control | dose: 78.0 mg/kg/injection, schedule: Q01DX005 (ip), vehicle: Klucel (hydroxypropylcellulose) (HPC) 108 % of control

COc1ccc(-c2coc3cc(O)ccc3c2=O)c(O)c1OC
inactive: [23] 97 % of control | [24] 101 % of control | [25] 99 % of control

O=C1CN(c2ccccc2)CC(=O)N2Cc3ccccc3CN12
inactive: dose: 6.25 mg/kg/injection, schedule: Q01DX005 (ip), vehicle: saline with Tween-80 96 % of control | dose: 12.5 mg/kg/injection, schedule: Q01DX005 (ip), vehicle: saline with Tween-80 100 % of control | dose: 25.0 mg/kg/injection, schedule: Q01DX005 (ip), vehicle: saline with Tween-80 98 % of control

O=C1C=CC(Cc2ccccc2)N1C(=O)c1ccccc1 (centres undefined)
inactive: [2] 99 % of control | [4] 100 % of control | [6] 97 % of control

CCOC(=O)C(C(=O)c1ccccc1)C(=O)C(C)(C)C (centres undefined)
inactive: [3] 100 % of control | [5] 91 % of control | [7] 95 % of control

COC(=O)C(/C=[N+](\[O-])C1CCCCC1)=C(\C=[N+](/[O-])C1CCCCC1)C(=O)OC
inactive: [8] 102 % of control | [9] 87 % of control | [14] 91 % of control

Cc1ccc(S(=O)(=O)C23C(N=NC2(C)C)C3(C)C)cc1 (centres undefined)
inactive: [20] 103 % of control | [21] 103 % of control | [22] 100 % of control

CN1CCC(/C=C/c2ccccc2)CN1 (centres undefined) (tested in a mixture with another compound)
inactive: [10] 113 % of control | [11] 118 % of control

O=C1CC2(CCCCC2)C(=O)N1c1ccc(N2C(=O)CC3(CCCCC3)C2=O)cc1
inactive: [23] 99 % of control | [24] 93 % of control | [25] 96 % of control

CC(C)(N)CNc1ccccc1
inactive: dose: 25.0 mg/kg/injection, schedule: Q01DX009 (ip), vehicle: saline 111 % of control | [10] 117 % of control | [11] 120 % of control

S=C(N=Nc1ccccc1)NNc1ccccc1
inactive: [16] 100 % of control | [1] 95 % of control | [3] 90 % of control | dose: 100.0 mg/kg/injection, schedule: Q04DX003 (ip), vehicle: saline with Tween-80 90 % of control | dose: 200.0 mg/kg/injection, schedule: Q04DX003 (ip), vehicle: saline with Tween-80 86 % of control | dose: 400.0 mg/kg/injection, schedule: Q04DX003 (ip), vehicle: saline with Tween-80 100 % of control
